Columns and labels:
Format in all cases: functional, Homo sapiens
Conditions in all cases: Homo sapiens, Concentration 10 uM; read-out: Cell Viability
[1] = tested on: Colon cancer organoid; test: Targeting of F14 CAF-induced therapy resistance in O14 CRC organoid-stroma co-culture. Cell viability is reported without Gefitinib.
[2] = tested on: Colon cancer organoid; test: Targeting of F14 CAF-induced therapy resistance in O14 CRC organoid-stroma co-culture. Cell viability is reported with Gefitinib.
[3] = tested on: Colon cancer organoid; test: Targeting of F14 CAF-induced therapy resistance in O23 CRC organoid-stroma co-culture. Cell viability is reported without Gefitinib.
[4] = tested on: Colon cancer organoid; test: Targeting of F14 CAF-induced therapy resistance in O23 CRC organoid-stroma co-culture. Cell viability is reported with Gefitinib.
[5] = tested on: Colon cancer organoid; test: Targeting of F14 CAF-induced therapy resistance in O23 CRC organoid-stroma co-culture. Cell viability is reported with SN-38.

SMILES	viability at 10 µM [1] [%]	viability at 10 µM [2] [%]	viability at 10 µM [3] [%]	viability at 10 µM [4] [%]	viability at 10 µM [5] [%]
CN([C@@H]1CCc2c(CC(=O)O)c3cc(S(C)(=O)=O)ccc3n2C1)S(=O)(=O)c1ccc(F)cc1 [CRTH2-negative-control]	98.2	37	76.2	24.9	54.8
CNC(=O)c1ccc(Nc2ncc(C(F)(F)F)c(NCc3nccnc3N(C)S(C)(=O)=O)n2)cc1 [DEFACTINIB]	76.8	17.9	78.6	40.5	39.9
CCN(CCO)CCCOc1ccc2c(Nc3cc(CC(=O)Nc4cccc(F)c4)[nH]n3)ncnc2c1 [DEFOSBARASERTIB]	9.69	3.88	62.1	19.2	28.3
Cn1c(C2(NC(=O)c3ccc4c(C5CCCC5)c(-c5ncc(Br)cn5)n(C)c4c3)CCC2)nc2ccc(/C=C/C(=O)O)cc21 [DELEOBUVIR]	126	50.5	112	94.6	60.4
C[C@H](NC(=O)Nc1cc2[nH]ncc2c(CO)n1)c1ccccn1 [ERKi-NC]	71.3	21.8	94.9	40.9	62.2
C[C@@H](NC(=O)Nc1cc2[nH]ncc2c(CO)n1)c1ccccc1 [ERKi]	49.2	10.3	14.3	4.5	14.3
CN(C(=O)c1ccccc1)c1cc(N(C)c2ccc3c(c2)CCc2ccc(C(=O)NCCN4CCOCC4)cc2C3=O)ccc1F [FM-743]	142	36.5	141	83.7	59.3
O=C(NCCN1CCOCC1)c1ccc2c(c1)C(=O)c1ccc(Nc3ccc(F)c(NC(=O)c4ccccc4)c3)cc1CC2 [FS-694]	156	28.9	108	40	54
CC(C)(C)OC(=O)N1CCCC1CNC1CCC(c2cc(F)ccc2F)(S(=O)(=O)c2ccc(Cl)cc2)CC1 (stereo not given) [GSI-NC]	74.5	52.1	109	42.1	78.6
CC(=O)Nc1c(F)cc(C(=O)N[C@H]2CC[C@H](O)CC2)cc1O[C@@H](C)c1ccccc1 [GSK046]	121	25.9	100	55.8	48.8
CNC(=O)c1cc(C(=O)NC2CC2)cn(Cc2ccccc2)c1=O [GSK620]	116	24.6	111	60.9	66.8
COCc1nc2cnc3cc(-c4c(C)noc4C)c(OC[C@H]4CCNC4)cc3c2n1[C@H](C)c1ccccc1 [GSK778]	40	8.04	95.6	47.2	48.8
Cc1cc2c(-c3ccco3)cnc(N[C@@H]3CCN(C)C[C@H]3C(=O)NC3CCCCC3)c2[nH]c1=O [GSK789]	84.8	26.6	72.5	29.8	38.8
Cc1cc2c(-c3ccco3)cnc(N[C@H]3CCN(C)C[C@@H]3C(=O)NC3CCCCC3)c2[nH]c1=O [GSK791]	111	26.2	76	50	81.3
CNC(=O)c1cc(C(=O)N[C@H]2[C@@H]3COC[C@@H]32)cc2c1O[C@@H](CF)[C@@H]2c1ccccc1 [GSK943]	75.9	30.9	67.7	76.1	64.3

Reference: ChEMBL document CHEMBL5608113, “Targeting of CAF-induced therapy resistance in CRC organoid-stroma co-cultures” (2024)
